# Data from patent publication US20240398784A1, “C-LINKED ISOQUINOLINE AMIDES AS LRRK2 INHIBITORS, PHARMACEUTICAL COMPOSITIONS, AND USES THEREOF” (Merck Sharp & Dohme LLC, priority 2021, published 2024).
# Target: LRRK2 G2019S (Homo sapiens, UniProt Q5S007, G2019S)
# Assay: LRRK2 G2019S Km ATP LanthaScreen assay
# Format: biochemical
# Conditions: read-out: LRRK2 pIC50 (converted)
# Sequence of LRRK2 G2019S (Q5S007 whole entry G2019S): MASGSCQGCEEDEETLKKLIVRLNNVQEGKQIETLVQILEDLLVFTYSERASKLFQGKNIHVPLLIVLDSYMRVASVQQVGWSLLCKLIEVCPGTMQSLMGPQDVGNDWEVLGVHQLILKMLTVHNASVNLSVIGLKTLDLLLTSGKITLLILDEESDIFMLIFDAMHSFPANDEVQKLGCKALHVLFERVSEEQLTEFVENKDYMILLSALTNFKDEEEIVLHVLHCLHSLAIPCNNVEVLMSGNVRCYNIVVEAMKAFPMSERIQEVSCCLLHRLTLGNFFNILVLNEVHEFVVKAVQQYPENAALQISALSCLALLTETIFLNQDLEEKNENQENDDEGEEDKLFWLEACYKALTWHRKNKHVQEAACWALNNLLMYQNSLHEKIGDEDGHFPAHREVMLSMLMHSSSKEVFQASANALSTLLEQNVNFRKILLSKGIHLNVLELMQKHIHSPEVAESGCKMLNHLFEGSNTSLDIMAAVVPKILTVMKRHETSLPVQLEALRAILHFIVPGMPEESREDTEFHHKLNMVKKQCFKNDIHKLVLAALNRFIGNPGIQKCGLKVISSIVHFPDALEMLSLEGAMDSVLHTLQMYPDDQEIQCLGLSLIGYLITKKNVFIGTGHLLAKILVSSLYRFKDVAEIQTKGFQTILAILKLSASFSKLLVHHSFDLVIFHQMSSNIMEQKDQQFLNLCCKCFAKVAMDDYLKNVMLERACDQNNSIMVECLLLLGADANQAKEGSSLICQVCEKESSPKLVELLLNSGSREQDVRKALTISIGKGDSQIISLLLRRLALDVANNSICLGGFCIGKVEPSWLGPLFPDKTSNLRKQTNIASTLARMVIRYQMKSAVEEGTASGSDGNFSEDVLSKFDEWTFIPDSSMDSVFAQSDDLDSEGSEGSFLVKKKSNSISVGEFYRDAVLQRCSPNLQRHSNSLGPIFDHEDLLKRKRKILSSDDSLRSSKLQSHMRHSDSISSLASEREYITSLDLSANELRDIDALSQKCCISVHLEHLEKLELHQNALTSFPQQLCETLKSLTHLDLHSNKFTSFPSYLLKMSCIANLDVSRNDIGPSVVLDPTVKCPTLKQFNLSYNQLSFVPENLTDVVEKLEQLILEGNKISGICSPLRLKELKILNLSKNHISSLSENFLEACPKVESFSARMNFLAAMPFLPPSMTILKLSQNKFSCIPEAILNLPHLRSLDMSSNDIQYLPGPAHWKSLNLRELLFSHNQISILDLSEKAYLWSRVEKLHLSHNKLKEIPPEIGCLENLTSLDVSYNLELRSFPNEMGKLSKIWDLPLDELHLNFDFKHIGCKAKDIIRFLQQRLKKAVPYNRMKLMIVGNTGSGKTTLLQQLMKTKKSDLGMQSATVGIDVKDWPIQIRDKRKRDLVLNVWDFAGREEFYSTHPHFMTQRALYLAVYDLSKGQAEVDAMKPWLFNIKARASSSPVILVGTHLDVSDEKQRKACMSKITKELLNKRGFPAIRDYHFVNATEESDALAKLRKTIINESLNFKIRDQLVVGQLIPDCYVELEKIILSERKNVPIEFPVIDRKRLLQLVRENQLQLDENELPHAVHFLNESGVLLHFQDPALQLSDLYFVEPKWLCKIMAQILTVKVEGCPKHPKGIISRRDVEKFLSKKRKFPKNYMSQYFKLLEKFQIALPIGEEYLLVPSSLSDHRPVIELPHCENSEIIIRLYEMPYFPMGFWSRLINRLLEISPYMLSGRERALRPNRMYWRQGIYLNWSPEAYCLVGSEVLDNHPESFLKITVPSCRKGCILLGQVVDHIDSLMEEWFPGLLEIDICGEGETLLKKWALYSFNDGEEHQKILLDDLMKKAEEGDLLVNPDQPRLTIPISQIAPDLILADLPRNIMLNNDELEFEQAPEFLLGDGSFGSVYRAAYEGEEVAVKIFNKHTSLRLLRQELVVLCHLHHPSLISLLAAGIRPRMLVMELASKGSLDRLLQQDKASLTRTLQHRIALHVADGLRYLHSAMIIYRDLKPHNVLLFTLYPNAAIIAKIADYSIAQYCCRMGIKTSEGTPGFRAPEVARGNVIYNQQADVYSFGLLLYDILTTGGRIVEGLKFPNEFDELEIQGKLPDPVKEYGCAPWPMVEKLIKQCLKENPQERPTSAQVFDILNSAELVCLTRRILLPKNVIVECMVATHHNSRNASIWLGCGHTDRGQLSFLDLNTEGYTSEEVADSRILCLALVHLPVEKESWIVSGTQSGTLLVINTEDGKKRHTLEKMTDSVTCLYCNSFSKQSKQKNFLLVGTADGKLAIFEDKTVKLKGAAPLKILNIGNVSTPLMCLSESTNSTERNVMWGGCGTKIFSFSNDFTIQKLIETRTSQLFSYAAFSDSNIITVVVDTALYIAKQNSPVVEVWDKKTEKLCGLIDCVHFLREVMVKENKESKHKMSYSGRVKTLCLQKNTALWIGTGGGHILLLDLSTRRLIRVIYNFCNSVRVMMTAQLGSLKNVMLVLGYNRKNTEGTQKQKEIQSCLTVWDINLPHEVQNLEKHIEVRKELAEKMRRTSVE
row,SMILES,IC50 [nM]
1,"COCC(C)c1cc2cc(NC(=O)C3CC3c3ccccn3)ncc2cc1Cl (single isomer, unassigned) [Ex-9.20, N-(7-chloro-6-(1-methoxypropan-2-yl)isoquinolin-3-yl)-2-(pyridin-2-yl)cyclopropane-1-carboxamide]",29.5
2,"CC1(C)CC(C(=O)Nc2cc3cc(C4CCC(N5CCC(F)C5)CC4)c(Cl)cc3cn2)CCO1 (single isomer, unassigned) [Ex-5.11, N-(7-chloro-6-(4-(3-fluoropyrrolidin-1-yl)cyclohexyl)isoquinolin-3-yl)-2,2-dimethyltetrahydro-2H-pyran-4-carboxamid]",70.8
3,N#CC1(c2ccc3cnc(NC(=O)C4CC45CCOC5)cc3c2)CC12CC2 (stereo not drawn) [Ex-2.63],12.3
4,"Cn1cc(C2CC2C(=O)Nc2cc3cc(C4CC(N5CC(F)C5)C4)c(Cl)cc3cn2)cn1 (single isomer, unassigned) [Ex-5.25, N-(7-chloro-6-(3-(3-fluoroazetidin-1-yl)cyclobutyl)isoquinolin-3-yl)-2-(1-methyl-1H-pyrazol-4-yl)cyclopropane-1-carboxamide]",0.575
5,"CC1CC1(C#N)c1ccc2cnc(NC(=O)C3CC3)cc2c1 (single isomer, unassigned) [Ex-18.7, (R or S)-N-(6-(1-cyano-2-methylcyclopropyl)isoquinolin-3-yl)cyclopropanecarboxamide]",4.57
6,"CCC(=O)N1CC(C(=O)Nc2cc3cc(C4(C#N)CC45CC5)ccc3cn2)C1 (single isomer, unassigned) [Ex-19.1, (R or S)-N-(6-(1-cyanospiro[2.2]pentan-1-yl)isoquinolin-3-yl)-1-propionylazetidine-3-carboxamide]",10.7

# The remaining lines, values ahead:
row,IC50 [nM],SMILES
1,0.0813,"CC1(N2CCC(c3cc4cc(NC(=O)C5CC56CCOCC6)ncc4cc3Cl)CC2)COCC1F (single isomer, unassigned) [Ex-6.24, N-(7-chloro-6-(1-(4-fluoro-3-methyltetrahydrofuran-3-yl)piperidin-4-yl)isoquinolin-3-yl)-6-oxaspiro[2.5]octane-1-carboxamide]"
2,47.9,CC1(N2CCC(c3cc4cc(NC(=O)C5CCC(C(F)(F)F)OC5)ncc4cc3Cl)CC2)COCC1O (stereo not drawn) [Ex-2.60]
3,0.0813,"CC1(N2CCC(c3cc4cc(NC(=O)C5CC56CCOC6)ncc4cc3Cl)CC2)COCC1F (single isomer, unassigned) [Ex-6.3, (R or S)-N-(7-chloro-6-(1-((3R,4R or 3S,4S)-4-fluoro-3-methyltetrahydrofuran-3-yl)piperidin-4-yl)isoquinolin-3-yl)-5-oxaspiro [2.4] heptane-1-carboxamide]"
4,1.15,CC1(N2CCC(c3cc4cc(NC(=O)[C@H]5CCCO5)ncc4cc3Cl)CC2)COCC1O (stereo partly drawn) [Ex-3.2]
5,15.5,"CC1(N2CCC(c3cc4cc(NC(=O)C5CC5C(F)F)ncc4cc3Cl)CC2)COCC1O (single isomer, unassigned) [Ex-10.10, N-(7-chloro-6-(1-(4-hydroxy-3-methyltetrahydrofuran-3-yl)piperidin-4-yl)isoquinolin-3-yl)-2-(difluoromethyl)cyclopropane-1-carboxamide]"
6,0.174,CC(C)(O)C1CC(C(=O)Nc2cc3cc(C4CCN(C5(C)COCC5O)CC4)c(Cl)cc3cn2)C1 (stereo not drawn) [Ex-2.13]
7,2,"Cc1cc2cnc(NC(=O)C3CC34CCOC4)cc2cc1C1CCN(C2(C)COCC2F)CC1 (single isomer, unassigned) [Ex-15.10, N-(6-(1-(4-fluoro-3-methyltetrahydrofuran-3-yl)piperidin-4-yl)-7-methylisoquinolin-3-yl)-5-oxaspiro[2.4]heptane-1-carboxamide]"
8,1.12,"O=C(Nc1cc2cc(C3CCN(C4COC4)CC3)c(Cl)cc2cn1)[C@H]1C[C@@H]1F (single isomer, unassigned) [Ex-1.7, (1R,3S or 1S,3R)-N-(7-chloro-6-(1-(oxetan-3-yl)piperidin-4-yl)isoquinolin-3-yl)-2-fluorocyclopropane-1-carboxamide]"
9,2.63,CC1(C)CC(C(=O)Nc2cc3cc(C4CCN(C5(C)COCC5O)CC4)c(Cl)cc3cn2)CCO1 (stereo not drawn) [Ex-2.35]
